Entries after “also recorded” stand apart in the source; their conditions may differ.
What was measured:
[1] = target: T1, cGAS (Mus musculus, UniProt Q8C6L5); assay: cGAS activity assay, c[G(2′,5′)pA(3′,5′)p] formation by thin-layer chromatography; format: biochemical; details: for cyclic dinucleotide formation with the nucleotide as cGAS substrate in place of GTP or ATP (in words): cGAS plus dsDNA
T1 construct: Purified recombinant full length (fl, amino acids 1-507) and truncated (tr, amino acids 147-507) murine cGAS; His6-SUMO (N, cleaved yes); made in house; host or cells: E. coli BL21 (DE3) RIL
T1 sequence (Q8C6L5 whole entry, the tested form may be a part): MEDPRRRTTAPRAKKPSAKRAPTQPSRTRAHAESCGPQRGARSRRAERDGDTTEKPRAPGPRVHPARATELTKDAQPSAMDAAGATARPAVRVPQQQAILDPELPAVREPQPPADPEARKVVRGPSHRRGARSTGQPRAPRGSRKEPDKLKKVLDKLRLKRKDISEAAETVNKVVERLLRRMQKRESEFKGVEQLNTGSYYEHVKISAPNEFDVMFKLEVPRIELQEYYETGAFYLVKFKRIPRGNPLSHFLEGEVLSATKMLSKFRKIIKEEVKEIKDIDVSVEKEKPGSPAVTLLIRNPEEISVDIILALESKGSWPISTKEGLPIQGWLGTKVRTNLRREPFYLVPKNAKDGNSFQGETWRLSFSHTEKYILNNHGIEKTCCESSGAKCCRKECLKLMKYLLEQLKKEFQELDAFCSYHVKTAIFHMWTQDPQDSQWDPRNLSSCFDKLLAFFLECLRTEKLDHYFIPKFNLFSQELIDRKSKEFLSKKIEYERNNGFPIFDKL
Description: (§1) To validate the structural results, we established an activity assay using thin-layer chromatography (FIG. 11) and monitored cyclic dinucleotide c[G(2′,5′)pA(3′,5′)p] formation from ATP and GTP using purified recombinant full-length and truncated cGAS proteins. cGAS required the presence of dsDNA and Mg^2+ or Mn^2+ for activity (FIG. 5A-B). […] The trace amount of c[G(2′,5′)pA(3′,5′)p]detected for the specific ssDNA used in this experiment was attributable to a stretch of sequence complementarity, and the substitution of G by 8-oxoguanine (8-oxoG) was sufficient to destabilize its predicted interaction and eliminate the residual cGAS activity.
(§2) Purified recombinant full length (fl, amino acids 1-507) and truncated (tr, amino acids 147-507) murine cGAS, including truncated mutant versions 1-6, were incubated in 20 μL reactions containing: 1 μM cGAS, 3.3 μM dsDNA, 5 mM MgCl2, 150 mM NaCl, 20 mM Tris-HCl, pH 7.5 at 25° C., 1 mM DTT, 10% glycerol, 1 mM each of nucleotides (typically ATP and GTP), and α^32P or γ^32P radiolabelled NTPs or dNTPs at 37° C. for 40 min. Reactions were stopped by addition of 20 μL of 50 mM EDTA. 2 μL of reaction solution was spotted onto high-performance TLC plates (HPTLC silica gel, 60 Å pores, F254, 10×10 cm, cat #1.05628.0001, EMD Millipore) and products were separated with Solvent 1 (NH4HCO3:C2H5OH:H2O [0.2 M:30%:70%], w:v:v) or 2 (NH4HCO3:C2H5OH:H2O [0.025 M:30%:70%], w:v:v) at 25° C. for 1 h. Reaction products were visualized by UV (254 nm) and phosphorimaging (Typhoon FLA 9500, GE Healthcare). Images were processed using Adobe Photoshop and Illustrator CS5. The TLC conditions used were largely based on a protocol established to separate 3′,5′ cAMP (Higashida et al, 2012).
(§3) The yield of c[G(2′,5′)pA(3′,5′)p] generated was calculated by densitometry analysis of TLC experiments, using FIJI (ImageJ 1.47i) or spectrophotemetrically (absorbance at 260 nm, E260=25.4×10^3) after purification from HPLC. For densitometry analyses, the fraction of α^32P-labelled c[G(2′,5′)pA(3′,5′)p] over total radioactivity per lane (c[G(2′,5′)pA(3′,5′)p]plus remaining α^32P-labelled ATP or GTP) was calculated.

[2] = tested on: IFN-β luciferase reporter; assay: IFN-β luciferase reporter assay in HEK 293 cells co-expressing cGAS and STING; format: cell-based; details: for cGAS function in cells (in words): alanine mutants of full-length cGAS expressed in HEK 293 cells
Description: To assess the impact on cGAS function in cells, we generated additional alanine mutants of cGAS for expression in mammalian cells. The full-length cGAS mutants together with STING and an IFN-β luciferase reporter were transiently expressed in HEK 293 cells. […] (Arg364, Tyr 421; FIG. 2F, 4B), while single mutants of these residues only slightly impaired cGAS function (FIG. 7C). […] Similarly, conversion of the highly mobile Gly198 to sterically restricted proline abrogated cGAS activity (FIG. 13E).
3×10^4 HEK293 cells per 96-well were reverse-transfected in triplicates with a mixture of pGL3-IFNbeta-Gluc (50 ng), pLenti-EF1-Fluc (25 ng), pLenti-EF1-mSTING (25 ng) and cGAS-expression plasmid (25 ng, pMAX-cGAS WT or mutants) or Control plasmid pMAX-GFP (Amaxa) using Trans-IT LT1 (MirusBio, Madison, Wis.). After 36 h cells were lysed in passive lysis buffer. Firefly and gaussia Luciferase activities were determined on an EnVision reader (Perkin Elmer, Waltham, Mass.) using the respective substrates D-luciferin and coelenterazine (PJK GmbH, Kleinblittersdorf, Germany). IFNbeta-Gluc values were normalized to constitutive firefly luciferase values and fold induction was calculated in relation to control-plasmid pMAX-GFP.

[3] = tested on: cGAS; assay: cGAS activity assay, c[G(2′,5′)pA(3′,5′)p] formation by thin-layer chromatography; format: biochemical, mouse; details: for c[G(2′,5′)pA(3′,5′)p] formation by cGAS protein in vitro (in words): purified recombinant cGAS incubated with DNA
Description: as §1, §2, §3

| Molecule | cGAS function in cells (in words) [2] | c[G(2′,5′)pA(3′,5′)p] formation by cGAS protein in vitro (in words) [3] | further results |
| --- | --- | --- | --- |
| Nc1ncnc2c1ncn2[C@H]1C[C@H](O)[C@@H](COP(=O)(O)OP(=O)(O)OP(=O)(O)O)O1 [2′-dATP, reference compound] | – | – | cyclic dinucleotide formation with the nucleotide as cGAS substrate in place of GTP or ATP (in words) [1]: forms; also recorded: markedly reduced formation of cyclic GA-dinucleotides |
| Asp307: cGAS single mutant, catalytic residue Asp307 replaced by Ala | non-functional; also recorded: functionally dead | – | – |
| Nc1ncnc2c1ncn2[C@@H]1O[C@H](COP(=O)(O)OP(=O)(O)OP(=O)(O)O)C[C@H]1O [3′-dATP, reference compound] | – | – | cyclic dinucleotide formation with the nucleotide as cGAS substrate in place of GTP or ATP (in words) [1]: markedly reduced formation of cyclic GA-dinucleotides |
| Nc1ncnc2c1ncn2[C@@H]1O[C@H](COP(=O)(O)O)[C@@H](O)[C@H]1O [AMP, reference compound] | – | – | cyclic dinucleotide formation with the nucleotide as cGAS substrate in place of GTP or ATP (in words) [1]: no product or intermediate formation |
| Nc1ncnc2c1ncn2[C@@H]1O[C@H](COP(=O)(O)OP(=O)(O)O)[C@@H](O)[C@H]1O [ADP, reference compound] | – | – | cyclic dinucleotide formation with the nucleotide as cGAS substrate in place of GTP or ATP (in words) [1]: reduced levels of c[G(2′,5′)pA(3′,5′)p] |
| S199A: cGAS single mutant S199A | did not severely impair cGAS function | retained substantial activity | – |
| 16 bp dsDNA: 16 bp dsDNA used for crystallography (SEQ ID NO: 47 and 48) (chain 1 AAATTGCCGAAGACGAA; chain 2 TTTCGTCTTCGGCAATT; DNA, backbone not given here) [reference compound] | – | – | stimulation of cGAS cyclic dinucleotide formation by the nucleic acid (in words) ([1]; ATP and GTP as substrates): elicited some activity |
| G198A: cGAS single mutant G198A | did not severely impair cGAS function | – | – |
| cGAS: mouse cyclic GMP-AMP synthase, wild type, full length (amino acids 1-507), recombinant or expressed in cells | – | – | enhanced luciferase activity compared to a control plasmid ([2]; HEK 293 cells, STING and IFN-β luciferase reporter transiently expressed): ~15 fold; estimated observed rate constant ([3]; multiple turnover conditions): 0.19 min⁻¹; turnovers per enzyme molecule ([3]; multiple turnover conditions, 40 min): over 750; original ATP and GTP converted to c[G(2′,5′)pA(3′,5′)p] ([3]; multiple turnover conditions, within 40 min, n=5): Over 78% |
| Arg161: cGAS single alanine mutant of DNA binding residue Arg161 | not sufficient to impair cGAS activity | – | – |
| Asp213: cGAS single mutant, catalytic residue Asp213 replaced by Ala | non-functional; also recorded: functionally dead | – | – |
| Glu211: cGAS single mutant, catalytic residue Glu211 replaced by Ala | non-functional; also recorded: functionally dead | functionally dead | – |
| Y421A, R364A: cGAS dual mutant of the base stacking residues Arg364 and Tyr421 | loss in the majority of activity | – | cGAS function in cells (in words) ([2]; Tyr 421): abrogation of cGAS activity |
| Nc1nc2c(ncn2[C@H]2C[C@H](O)[C@@H](COP(=O)(O)OP(=O)(O)OP(=O)(O)O)O2)c(=O)[nH]1 [2′-dGTP, reference compound] | – | – | cyclic dinucleotide formation with the nucleotide as cGAS substrate in place of GTP or ATP (in words) [1]: not at all; also recorded: unable to form a cyclic dinucleotide |
| cGAS (tr): truncated murine cGAS, amino acids 147-507 | – | exhibits activity, albeit less than cGAS (fl) | – |
| S165A, N172A, K372A triple mutant: cGAS dsDNA-binding triple mutant (protein) PDKLKKVLDKLRLKRKDIAEAAETVAKVVERLLRRMQKRESEFKGVEQLNTGSYYEHVKISAPNEFDVMFKLEVPRIELQEYYETGAFYLVKFKRIPRGNPLSHFLEGEVLSATKMLSKFRKIIKEEVKEIKDIDVSVEKEKPGSPAVTLLIRNPEEISVDIILALESKGSWPISTKEGLPIQGWLGTKVRTNLRREPFYLVPKNAKDGNSFQGETWRLSFSHTEAYILNNHGIEKTCCESSGAKCCRKECLKLMKYLLEQLKKEFQELDAFCSYHVKTAIFHMWTQDPQDSQWDPRNLSSCFDKLLAFFLECLRTEKLDHYFIPKFNLFSQELIDRKSKEFLSKKIEYERNNGFPIFDKL | complete loss in activity and ability to stimulate interferon production | complete loss in activity | – |
| N196A, Y200A, K372A triple mutant: cGAS dsDNA-binding triple mutant (protein) PDKLKKVLDKLRLKRKDISEAAETVNKVVERLLRRMQKRESEFKGVEQLATGSAYEHVKISAPNEFDVMFKLEVPRIELQEYYETGAFYLVKFKRIPRGNPLSHFLEGEVLSATKMLSKFRKIIKEEVKEIKDIDVSVEKEKPGSPAVTLLIRNPEEISVDIILALESKGSWPISTKEGLPIQGWLGTKVRTNLRREPFYLVPKNAKDGNSFQGETWRLSFSHTEAYILNNHGIEKTCCESSGAKCCRKECLKLMKYLLEQLKKEFQELDAFCSYHVKTAIFHMWTQDPQDSQWDPRNLSSCFDKLLAFFLECLRTEKLDHYFIPKFNLFSQELIDRKSKEFLSKKIEYERNNGFPIFDKL | complete loss in activity and ability to stimulate interferon production | complete loss in activity | – |
| R158A, R161A, K395A triple mutant: cGAS dsDNA-binding triple mutant (protein) PDKLKKVLDKLALKAKDISEAAETVNKVVERLLRRMQKRESEFKGVEQLNTGSYYEHVKISAPNEFDVMFKLEVPRIELQEYYETGAFYLVKFKRIPRGNPLSHFLEGEVLSATKMLSKFRKIIKEEVKEIKDIDVSVEKEKPGSPAVTLLIRNPEEISVDIILALESKGSWPISTKEGLPIQGWLGTKVRTNLRREPFYLVPKNAKDGNSFQGETWRLSFSHTEKYILNNHGIEKTCCESSGAKCCRAECLKLMKYLLEQLKKEFQELDAFCSYHVKTAIFHMWTQDPQDSQWDPRNLSSCFDKLLAFFLECLRTEKLDHYFIPKFNLFSQELIDRKSKEFLSKKIEYERNNGFPIFDKL | complete loss in activity and ability to stimulate interferon production | complete loss in activity | – |
| S165A, N172A, Y200A triple mutant: cGAS dsDNA-binding triple mutant (protein) PDKLKKVLDKLRLKRKDIAEAAETVAKVVERLLRRMQKRESEFKGVEQLNTGSAYEHVKISAPNEFDVMFKLEVPRIELQEYYETGAFYLVKFKRIPRGNPLSHFLEGEVLSATKMLSKFRKIIKEEVKEIKDIDVSVEKEKPGSPAVTLLIRNPEEISVDIILALESKGSWPISTKEGLPIQGWLGTKVRTNLRREPFYLVPKNAKDGNSFQGETWRLSFSHTEKYILNNHGIEKTCCESSGAKCCRKECLKLMKYLLEQLKKEFQELDAFCSYHVKTAIFHMWTQDPQDSQWDPRNLSSCFDKLLAFFLECLRTEKLDHYFIPKFNLFSQELIDRKSKEFLSKKIEYERNNGFPIFDKL | partial loss in activity | partial loss in activity | – |

— patent publication US11014956B2, “Compositions and methods for altering second messenger signaling” (Memorial Sloan Kettering Cancer Center, priority 2013, dated 2021)
